Measured values: patent US20060069132A1, “Azolecarboxamide herbicides” (priority 2004, published 2006)

Key:
giant foxtail = test: Test C pre-/postemergence herbicide test; format: in vivo, Setaria faberi
How it was run: (§1)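 Pre- and postemergence application, solvent/surfactant formulation; post at 1- to 4-leaf stage (2–18 cm). Greenhouse 12–14 d. Visual rating vs controls, 0 = no effect, 100 = complete control.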

rice [1] = test: Test B pre-/postemergence herbicide test; format: in vivo, Oryza sativa; conditions: preemergence
How it was run: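 Greenhouse pot assay with simultaneous preemergence (treated seed) and postemergence (2–18 cm seedlings) applications of surfactant-containing, non-phytotoxic solvent formulations. Response scored visually 13–15 days later on a 0–100 scale, 100 meaning complete control.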

common ragweed = test: Test C pre-/postemergence herbicide test; format: in vivo, Ambrosia elatior; set-up: key to Plant response rating, Ragweed: 0 = no effect, 100 = complete control
How it was run: as §1

eastern black nightshade = test: Test C pre-/postemergence herbicide test; format: in vivo, Solanum ptycanthum; conditions: for Nightshade plant response rating: Preemergence, scale 0 to 100, 0 no effect, 100 complete control
How it was run: as §1

barnyardgrass = test: Test C flooded paddy test; format: in vivo, Echinochloa crus-galli; conditions: for Plant response rating, Barnyardgrass: 500 g ai/ha, visual rating after 12 to 14 days
How it was run: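 Greenhouse test with a 12–14 day hold after application and visual comparison with controls. Emerged plants were 1- to 4-leaf stage (2–18 cm) when sprayed postemergence, and the paddy barnyardgrass was at 2 leaves under flooded conditions. 100 = complete control.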

[2] = tested on: common (oilseed) sunflower; test: Test C pre-/postemergence herbicide test; format: in vivo, Helianthus annuus; conditions: for Sunflower plant response rating: Preemergence, scale 0 to 100, 0 no effect, 100 complete control
How it was run: as §1

rice [3] = test: Test C flooded paddy test; format: in vivo, Oryza sativa; conditions: for Plant response rating, Rice: 500 g ai/ha, visual rating after 12 to 14 days
How it was run: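 Plants were grown to the 1- to 4-leaf stage (2–18 cm) and then treated postemergence, or grown to the 2-leaf stage for the flooded paddy test. They were held in a greenhouse for 12 to 14 days and then scored by eye against controls, where 0 is no effect and 100 is complete control.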

[4] = 125 g ai/ha, scale 0 (no effect) to 100 (complete control), visual, 12 to 14 days, preemergence
[5] = 250 g ai/ha, scale 0 to 100 (0 no effect, 100 complete control), visual, 12 to 14 days, preemergence
[6] = Preemergence, 500 g ai/ha, scale 0 to 100, 0 no effect, 100 complete control
[7] = 500 g ai/ha, visual rating 0-100, 0 no effect, 100 complete control
[8] = 62 g ai/ha, scale 0 to 100 (0 no effect, 100 complete control)
[9] = 125 g ai/ha, scale of 0 to 100, 0 is no effect, 100 is complete control
[10] = 250 g ai/ha, scale of 0 to 100, 0 is no effect, 100 is complete control
[11] = scale 0 to 100 (0 no effect, 100 complete control)
[12] = 125 g ai/ha, scale 0 to 100 (0 no effect, 100 complete control)
[13] = 62 g ai/ha, preemergence, scale 0 to 100
[14] = 125 g ai/ha, 0 = no effect, 100 = complete control
[15] = 250 g ai/ha, scale 0-100, preemergence
[16] = 500 g ai/ha, scale 0 to 100 (0 no effect, 100 complete control), visual, 12 to 14 days, preemergence
[17] = 500 g ai/ha, visual rating, 0 = no effect, 100 = complete control
[18] = Postemergence, 500 g ai/ha, scale 0 to 100
[19] = Postemergence, 250 g ai/ha, scale 0 to 100, 0 no effect, 100 complete control
[20] = postemergence, 125 g ai/ha, scale 0 to 100
[21] = postemergence, 62 g ai/ha, scale 0 to 100

CCn1nc(C(C)(C)C)cc1C(=O)Nc1cc(C#N)ccc1F [Compound 140]
Plant response rating (0 = no effect, 100 = complete control), Foxtail, Giant (giant foxtail; 62 g ai/ha, preemergence): 0 | Plant response rating, Foxtail, Giant (giant foxtail; [4]): 25 | Plant response rating, Foxtail, Giant (giant foxtail; [5]): 65 | Foxtail, Giant plant response rating (giant foxtail; [6]): 85 | Plant response rating, Rice (rice [1]; [7]): 70 | Plant response rating, Rice (rice [1]; 125 g ai/ha, 0 to 100 scale, 0 is no effect, 100 is complete control): 0 | Plant response rating (0 = no effect, 100 = complete control), Ragweed (common ragweed; 62 g ai/ha, preemergence): 0 | Plant response rating, Ragweed (common ragweed; [4]): 0 | Ragweed plant response rating (common ragweed; [6]): 95 | Plant response rating (0 = no effect, 100 = complete control), Nightshade (eastern black nightshade; 62 g ai/ha, preemergence): 0 | Plant response rating, Nightshade (eastern black nightshade; [4]): 0 | Nightshade plant response rating (eastern black nightshade; 500 g ai/ha): 95 | Barnyardgrass plant response rating (barnyardgrass; [8]): 0 | Barnyardgrass plant response rating (barnyardgrass; [9]): 0 | Barnyardgrass plant response rating (barnyardgrass; [10]): 0 | Plant response rating, Barnyardgrass (barnyardgrass; [11]): 15 | Plant response rating (0 = no effect, 100 = complete control), Sunflower ([2]; 62 g ai/ha, preemergence): 0 | Plant response rating, Sunflower [2, 4]: 0 | Sunflower plant response rating ([2]; 500 g ai/ha): 0 | Rice plant response rating (rice [3]; [8]): 0 | Rice plant response rating (rice [3]; [12]): 0 | Rice plant response rating (rice [3]; [10]): 0 | Plant response rating, Rice (rice [3]; [11]): 0

CCc1nn(C(C)(C)C)cc1C(=O)Nc1cccc(C(C)=NO)c1 [Compound 188]
Plant response rating, Foxtail, Giant (giant foxtail; [13]): 0 | Plant response rating, Foxtail, Giant (giant foxtail; [4]): 55 | Plant response rating, Foxtail, Giant (giant foxtail; [5]): 70 | Foxtail, Giant plant response rating (giant foxtail; [6]): 100 | Rice plant response rating (0 to 100 scale) (rice [1]; [14]): 50 | Plant response rating, Rice (rice [1]; [7]): 70 | Plant response rating, Ragweed (common ragweed; [13]): 0 | Plant response rating, Ragweed (common ragweed; [4]): 65 | Ragweed plant response rating (common ragweed; [6]): 100 | Plant response rating, Nightshade (eastern black nightshade; [13]): 80 | Plant response rating, Nightshade (eastern black nightshade; [4]): 95 | Nightshade plant response rating (eastern black nightshade; 500 g ai/ha): 100 | Barnyardgrass plant response rating (barnyardgrass; [8]): 35 | Barnyardgrass plant response rating (barnyardgrass; [9]): 55 | Barnyardgrass plant response rating (barnyardgrass; [10]): 75 | Plant response rating, Barnyardgrass (barnyardgrass; [11]): 85 | Plant response rating, Sunflower [2, 13]: 0 | Plant response rating, Sunflower [2, 4]: 0 | Sunflower plant response rating ([2]; 500 g ai/ha): 0 | Rice plant response rating (rice [3]; [8]): 35 | Rice plant response rating (rice [3]; [12]): 45 | Rice plant response rating (rice [3]; [10]): 65 | Plant response rating, Rice (rice [3]; [11]): 75

CCn1nc(C(C)(C)C)cc1C(=O)Nc1cc(C(=O)N2CCCC2)ccc1F [Compound 242]
Plant response rating, Foxtail, Giant (giant foxtail; [13]): 85 | Plant response rating, Foxtail, Giant (giant foxtail; [4]): 100 | Plant response rating, Foxtail, Giant (giant foxtail; [15]): 100 | Plant response rating, Foxtail, Giant (giant foxtail; [16]): 100 | Rice plant response rating (0 to 100 scale) (rice [1]; [14]): 50 | Plant response rating, Rice (rice [1]; [17]): 80 | Plant response rating, Ragweed (common ragweed; [13]): 95 | Plant response rating, Ragweed (common ragweed; [15]): 100 | Plant response rating, Ragweed (common ragweed; [16]): 100 | Plant response rating, Nightshade (eastern black nightshade; [13]): 100 | Plant response rating, Nightshade (eastern black nightshade; [4]): 100 | Plant response rating, Nightshade (eastern black nightshade; [15]): 100 | Plant response rating, Nightshade (eastern black nightshade; [16]): 100 | Barnyardgrass plant response rating (barnyardgrass; [8]): 15 | Barnyardgrass plant response rating (barnyardgrass; [12]): 75 | Barnyardgrass plant response rating (barnyardgrass; [10]): 90 | Plant response rating, Barnyardgrass (barnyardgrass; [11]): 95 | Plant response rating, Sunflower [2, 13]: 0 | Plant response rating, Sunflower [2, 15]: 50 | Plant response rating, Sunflower [2, 16]: 95 | Rice plant response rating (rice [3]; [8]): 50 | Rice plant response rating (rice [3]; [12]): 85 | Rice plant response rating (rice [3]; [10]): 90 | Plant response rating, Rice (rice [3]; [11]): 90

CCn1nc(C2(C)CC2)cc1C(=O)Nc1cccc(C(=O)N2CC=CC2)c1 [Compound 304]
Plant response rating, Foxtail, Giant (giant foxtail; [13]): 5 | Plant response rating, Foxtail, Giant (giant foxtail; [4]): 50 | Plant response rating, Foxtail, Giant (giant foxtail; [15]): 60 | Plant response rating, Foxtail, Giant (giant foxtail; [16]): 90 | Rice plant response rating (0 to 100 scale) (rice [1]; [14]): 0 | Plant response rating, Rice (rice [1]; [17]): 20 | Plant response rating, Ragweed (common ragweed; [13]): 0 | Plant response rating, Ragweed (common ragweed; [15]): 70 | Plant response rating, Ragweed (common ragweed; [16]): 70 | Plant response rating, Nightshade (eastern black nightshade; [13]): 80 | Plant response rating, Nightshade (eastern black nightshade; [4]): 100 | Plant response rating, Nightshade (eastern black nightshade; [15]): 100 | Plant response rating, Nightshade (eastern black nightshade; [16]): 100 | Barnyardgrass plant response rating (barnyardgrass; [8]): 40 | Barnyardgrass plant response rating (barnyardgrass; [12]): 50 | Barnyardgrass plant response rating (barnyardgrass; [10]): 85 | Plant response rating, Barnyardgrass (barnyardgrass; [11]): 95 | Plant response rating, Sunflower [2, 13]: 0 | Plant response rating, Sunflower [2, 15]: 0 | Plant response rating, Sunflower [2, 16]: 5 | Rice plant response rating (rice [3]; 62 g ai/ha, scale 0 to 100): 45 | Rice plant response rating (rice [3]; [12]): 60 | Rice plant response rating (rice [3]; [10]): 70 | Plant response rating, Rice (rice [3]; [11]): 75

CCn1nc(C(C)(C)C)cc1C(=O)Nc1cccc(OC(F)(F)C(F)F)c1 [Compound 333]
Plant response rating, Foxtail, Giant (giant foxtail; [13]): 0 | Plant response rating, Foxtail, Giant (giant foxtail; [4]): 10 | Plant response rating, Foxtail, Giant (giant foxtail; [15]): 50 | Plant response rating, Foxtail, Giant (giant foxtail; [16]): 75 | Foxtail, Giant plant response rating (giant foxtail; [18]): 10 | Plant response rating, Foxtail, Giant (giant foxtail; [19]): 10 | Plant response rating, Foxtail, Giant (giant foxtail; [20]): 5 | Plant response rating, Foxtail, Giant (giant foxtail; [21]): 5 | Plant response rating (0 to 100 scale), Rice (rice [1]; 125 g ai/ha, 0 is no effect, 100 is complete control): 0 | Plant response rating, Rice (rice [1]; [17]): 0 | Plant response rating, Ragweed (common ragweed; [13]): 0 | Plant response rating, Ragweed (common ragweed; [15]): 50 | Plant response rating, Ragweed (common ragweed; [16]): 65 | Ragweed plant response rating (common ragweed; [18]): 50 | Plant response rating, Ragweed (common ragweed; [19]): 50 | Plant response rating, Ragweed (common ragweed; [20]): 30 | Plant response rating, Ragweed (common ragweed; [21]): 5 | Plant response rating, Nightshade (eastern black nightshade; [4]): 20 | Plant response rating, Nightshade (eastern black nightshade; [15]): 98 | Plant response rating, Nightshade (eastern black nightshade; [16]): 100 | Barnyardgrass plant response rating (barnyardgrass; [8]): 0 | Barnyardgrass plant response rating (barnyardgrass; [12]): 0 | Barnyardgrass plant response rating (barnyardgrass; [10]): 10 | Plant response rating, Barnyardgrass (barnyardgrass; [11]): 20 | Plant response rating, Sunflower [2, 13]: 0 | Plant response rating, Sunflower [2, 15]: 0 | Plant response rating, Sunflower [2, 16]: 0 | Rice plant response rating (rice [3]; 62 g ai/ha, scale 0 to 100): 0 | Rice plant response rating (rice [3]; [12]): 0 | Rice plant response rating (rice [3]; [10]): 15 | Plant response rating, Rice (rice [3]; [11]): 20
